What was measured:
[1] = test system: laboratory and primary clinical HIV-1 isolates; assay: Antiviral activity, summary over strains; format: cell-based; conditions: Human immunodeficiency virus 1; range over isolates; read-out: EC50 against laboratory and primary clinical HIV-1 isolates
Procedure: (§1) The susceptibility of HIV-1LAI or HIV-2ROD to various compounds was determined as previously described[20]–[22]. Briefly, MT-2 cells (10^4/ml) were exposed to 100 TCID50 of HIV-1LAI or HIV-2ROD in the presence or absence of various concentrations of compounds in 96-well plates and were incubated at 37 °C for 7 days. After incubation, 100 μl of the medium was removed from each well, 3-(4,5-dimetylthiazol-2-yl)-2,5-diphenyltetrazolium bromide (MTT) solution (10 μl, 7.5 mg/ml in PBS) was added to each well, followed by incubation at 37 °C for 2 h. […] To determine the sensitivity of clinically isolated HIV-1s to compounds, PHA-PBMC (10^6/ml) were exposed to 50 TCID50 of each HIV-1 and cultured in the presence or absence of various concentrations of compounds in 10-fold serial dilutions in 96-well plates. In determining the drug-susceptibility of certain laboratory HIV-1 strains, MT-4 cells were employed as target cells as previously described[23],[24]. MT-4 cells (10^5/ml) were exposed to 100 TCID50 of drug-resistant HIV-1s in the presence or absence of various concentrations of compounds and were incubated at 37 °C. On day 7, the supernatants were harvested and the amounts of p24 were determined by using a fully-automated chemiluminescent enzyme immunoassay system (Lumipulse f: Fujirebio, Tokyo)[35]–[37]. […]

HIV-1T91A = assay: p24 assay in MT-4 cells, recombinant clone; format: cell-based; conditions: Human immunodeficiency virus 1, MT4
Procedure: (§2) The susceptibility of HIV-1LAI or HIV-2ROD to various compounds was determined as previously described[20]–[22]. Briefly, MT-2 cells (10^4/ml) were exposed to 100 TCID50 of HIV-1LAI or HIV-2ROD in the presence or absence of various concentrations of compounds in 96-well plates and were incubated at 37 °C for 7 days. After incubation, 100 μl of the medium was removed from each well, 3-(4,5-dimetylthiazol-2-yl)-2,5-diphenyltetrazolium bromide (MTT) solution (10 μl, 7.5 mg/ml in PBS) was added to each well, followed by incubation at 37 °C for 2 h. […] To determine the sensitivity of clinically isolated HIV-1s to compounds, PHA-PBMC (10^6/ml) were exposed to 50 TCID50 of each HIV-1 and cultured in the presence or absence of various concentrations of compounds in 10-fold serial dilutions in 96-well plates. In determining the drug-susceptibility of certain laboratory HIV-1 strains, MT-4 cells were employed as target cells as previously described[23],[24]. MT-4 cells (10^5/ml) were exposed to 100 TCID50 of drug-resistant HIV-1s in the presence or absence of various concentrations of compounds and were incubated at 37 °C. On day 7, the supernatants were harvested and the amounts of p24 were determined by using a fully-automated chemiluminescent enzyme immunoassay system (Lumipulse f: Fujirebio, Tokyo)[35]–[37]. […] All assays were performed in duplicate, and EC50 shown in this report represent average values of two to four independent experiments. PHA-PBMCs were derived from a single donor in each independent experiment. The research protocols described in the present study were carried out in accordance with relevant guidelines and regulations, and were approved in Ethics Committee for Epidemiological and General Research at the Faculty of Life Sciences, Kumamoto University.
(§3) To generate HIV-1 clones carrying the desired AA substitutions, site-directed mutagenesis was performed with a QuikChange site-directed mutagenesis kit (Stratagene, La Jolla, CA), and the AA substitution-containing genomic fragments were introduced into pHIV-1NL4-3Sma, which had been created to have a SmaI site by changing two nucleotides (2590 and 2593) of pHIV-1NL4-3.

HIV-1I84V = assay: p24 assay in MT-4 cells, recombinant clone; format: cell-based; conditions: Human immunodeficiency virus 1, MT4
Procedure: as §2, §3

HIV-1I47V = assay: p24 assay in MT-4 cells, recombinant clone; format: cell-based; conditions: Human immunodeficiency virus 1, MT4
Procedure: as §2, §3

HIV-1L10F = assay: p24 assay in MT-4 cells, recombinant clone; format: cell-based; conditions: Human immunodeficiency virus 1, MT4
Procedure: as §2, §3

[2] = Cytotoxicity against MT-2 cells (MTT assay); format: cell-based; conditions: human
Procedure: as §2

HIV-1MDRmix DRV ^R 20P = assay: p24 production inhibition in PHA-PBMC; format: cell-based
Procedure: as §2

[3] = test system: HIV-1ME46 (subtype B, X4/R5); assay: p24 production inhibition in PHA-PBMC; format: cell-based; conditions: Human immunodeficiency virus 1, PHA-PBMC, p24 Gag production
Procedure: as §2

[4] = test system: HIV-1ERS104pre (wild-type); assay: p24 production inhibition in PHA-PBMC; format: cell-based; conditions: Human immunodeficiency virus 1, PHA-PBMC, p24 Gag production
Procedure: as §2

HIV-1MDR/G = assay: p24 production inhibition in PHA-PBMC; format: cell-based
Procedure: as §2

HIV-1BaL (subtype B, R5) = assay: p24 production inhibition in PHA-PBMC; format: cell-based; conditions: Human immunodeficiency virus 1, PHA-PBMC, p24 Gag production
Procedure: as §2

HIV-1MDR/C = assay: p24 production inhibition in PHA-PBMC; format: cell-based
Procedure: as §2

HIV-1MDR/B = assay: p24 production inhibition in PHA-PBMC; format: cell-based
Procedure: as §2

HIV-1MDR/TM = assay: p24 production inhibition in PHA-PBMC; format: cell-based
Procedure: as §2

[5] = test system: HIV-192UG029 (subtype A, X4); assay: p24 production inhibition in PHA-PBMC; format: cell-based, HIV-1; conditions: Human immunodeficiency virus 1, read-out: EC50 HIV-192UG029 (subtype A, X4)
Procedure: as §2

HIV-1LPV ^R 5μM = assay: p24 production inhibition in MT-4 cells; format: cell-based
Procedure: as §2

HIV-1ATV ^R 5μM = assay: p24 production inhibition in MT-4 cells; format: cell-based
Procedure: as §2

HIV-1APV ^R 5μM = assay: p24 production inhibition in MT-4 cells; format: cell-based
Procedure: as §2

HIV-1NL4-3 = assay: Viral growth kinetics in MT-4 cells (p24); format: cell-based; conditions: as low as 0.01 µM, 7 days
Procedure: (§4) The GRL-09510-resistant variant at passage 36 was propagated in fresh MT-4 cells without GRL-09510 for 7 days, and aliquoted HIV-1_9510 ^R P36 viral stocks were stored at −80 °C. MT-4 cells (3.2 × 10^5) were exposed to the HIV-1_9510 ^R P36 or wild-type HIV-1NL4-3 preparation containing 10 ng/ml p24 in 6-well plates for 3 hours, and the infected MT-4 cells were washed with fresh medium, divided into 4 fractions and each cultured with or without GRL-09510 (final concentration of MT-4 cells 10^4/ml, and drug concentrations 0, 0.01, 0.1 and 1 μΜ). The amounts of p24 were measured every two days for up to 7 days.

HIV-1_9510 ^R P36 = assay: Viral growth kinetics in MT-4 cells (p24); format: cell-based
Procedure: as §4

HIVMDR strains = assay: p24 production inhibition in PHA-PBMC, summary over HIVMDR strains; format: cell-based, HIV-1; conditions: Human immunodeficiency virus 1, range over clinical HIVMDR isolates, read-out: EC50 values against HIVMDR
Procedure: as §1

[6] = test system: HIV-1NL4-3 variants selected with ATV, LPV and APV; assay: p24 assay in MT-4 cells, summary over PI-selected variants; format: cell-based
Procedure: as §1

[7] = compared to EC50 for HIV-1ERS104pre
[8] = compared to HIV-1WT/ERS104pre, Supplemental Table 4
[9] = number in parentheses, compared to HIV-1NL4-3

COc1ccc(S(=O)(=O)N(CC(C)C)CC(O)C(Cc2ccccc2)NC(=O)OC2C3COC4OCC2C4C3)cc1 (stereo not drawn) [GRL-09510]
EC50 [1]: 1.4 to 2.8 nM
EC50 (HIV-1T91A): 3.3 ± 0.4 nM
EC50 (HIV-1I84V): 3.3 ± 0.3 nM
EC50 (HIV-1I47V): 3.6 ± 0.5 nM
EC50 (HIV-1L10F): 4.4 ± 0.2 nM
CC50 [2]: 39 ± 0.7 µM
fold more effective than DRV against HIV-1DRV ^R 20P (HIV-1MDRmix DRV ^R 20P; PHA-PBMC, p24): 12 fold
fold change of EC50 HIV-1MDRmix DRV ^R 20P (HIV-1MDRmix DRV ^R 20P; [7]): 7
fold change in EC50 HIV-1MDRmixDRVR20P (HIV-1MDRmix DRV ^R 20P; [8]): 7
EC50 (HIV-1MDRmix DRV ^R 20P; read-out: EC50 HIV-1MDRmix DRV ^R 20P, PHA-PBMC, p24 Gag production): 25 ± 1 nM
EC50 [3]: 1.2 ± 0.2 nM
EC50 [4]: 3.5 ± 0.1 nM
EC50 (HIV-1MDR/G; PHA-PBMC, p24 Gag production): 3.3 ± 1.4 nM
fold change of EC50 HIV-1MDR/G (HIV-1MDR/G; [7]): 1
fold change in EC50 HIV-1MDR/G (HIV-1MDR/G; [8]): 1
EC50 (HIV-1BaL (subtype B, R5)): 3.1 ± 0.4 nM
EC50 (HIV-1MDR/C; Human immunodeficiency virus 1, PHA-PBMC, p24 Gag production): 3.2 ± 0.6 nM
fold change of EC50 HIV-1MDR/C (HIV-1MDR/C; [7]): 1
EC50 (HIV-1MDR/B; PHA-PBMC, p24 Gag production): 3.7 ± 0.1 nM
fold change of EC50 HIV-1MDR/B (HIV-1MDR/B; [7]): 1
EC50 (HIV-1MDR/TM; PHA-PBMC, p24 Gag production): 4 ± 0.6 nM
fold change of EC50 HIV-1MDR/TM (HIV-1MDR/TM; [7]): 1
EC50 [5]: 2.7 ± 0.1 nM
fold change of EC50 HIV-1LPV ^R 5μM (HIV-1LPV ^R 5μM; [9]): 1
EC50 (HIV-1LPV ^R 5μM; read-out: EC50 HIV-1LPV ^R 5μM, MT-4 cells, p24 Gag production): 3.9 ± 0.5 nM
fold change of EC50 HIV-1ATV ^R 5μM (HIV-1ATV ^R 5μM; [9]): 1
EC50 (HIV-1ATV ^R 5μM; read-out: EC50 HIV-1ATV ^R 5μM, MT-4 cells, p24 Gag production): 3.7 ± 0.9 nM
fold change in EC50 HIV-1APVR5M (HIV-1APV ^R 5μM; compared to HIV-1NL4-3, Supplemental Table 4): 2
fold change of EC50 HIV-1APV ^R 5μM (HIV-1APV ^R 5μM; [9]): 2
EC50 (HIV-1APV ^R 5μM; read-out: EC50 HIV-1APV ^R 5μM, MT-4 cells, p24 Gag production): 4.8 ± 0.1 nM
growth of HIV-1NL4-3 in the presence of drug (HIV-1NL4-3): failed to grow
replication of HIV-1_9510 ^R P36 in the presence of drug (HIV-1_9510 ^R P36; 1 µM): completely suppressed
growth of HIV-1_9510 ^R P36 in the presence of drug (HIV-1_9510 ^R P36; 0.01 and 0.1 µM, 7-day culture): propagated
EC50 (HIVMDR strains): 3.2 to 4 nM
EC50 ([6]; Human immunodeficiency virus 1, MT4, MT-4 cells, variants selected with up to 5 µM ATV, LPV, APV, read-out: EC50 against PI-selected HIV-1NL4-3 variants): 3.7 to 4.8 nM
fold-differences of EC50 against PI-selected variants ([6]; compared to against HIV-1NL4-3): 1~2
